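All cell lines were grown in 96-well plates and treated with compound for 48 hours. TGI: total growth inhibition.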
Key:
Experiment in all cases: inhibition of tumour cell growth, NCI panel, 48 h
SN12C renal = test system: SN12C renal
HOP-62 NSCLC = test system: HOP-62 NSCLC
IGROV1 ovarian = test system: IGROV1 ovarian
HCT-116 colon = test system: HCT-116 colon
HOP-92 NSCLC = test system: HOP-92 NSCLC
DU-145 prostate = test system: DU-145 prostate
OVCAR-8 ovarian = test system: OVCAR-8 ovarian
SW-620 colon = test system: SW-620 colon
RPMI-8226 leukemia = test system: RPMI-8226 leukemia
EKVX NSCLC = test system: EKVX NSCLC
K-562 leukemia = test system: K-562 leukemia
M14 melanoma = test system: M14 melanoma
MALME-3M melanoma = test system: MALME-3M melanoma
SK-MEL-2 melanoma = test system: SK-MEL-2 melanoma
UACC-62 melanoma = test system: UACC-62 melanoma
COLO 205 colon = test system: COLO 205 colon
NCI-H226 lung = test system: NCI-H226 lung
UACC-257 melanoma = test system: UACC-257 melanoma
NCI-H460 lung = test system: NCI-H460 lung
HL-60(TB) leukemia = test system: HL-60(TB) leukemia
MOLT-4 leukemia = test system: MOLT-4 leukemia
BT-549 breast = test system: BT-549 breast
SNB-75 CNS = test system: SNB-75 CNS
786-0 renal = test system: 786-0 renal
HCC-2998 colon = test system: HCC-2998 colon
U251 CNS = test system: U251 CNS
HS 578T breast = test system: HS 578T breast
SR leukemia = test system: SR leukemia
SK-OV-3 ovarian = test system: SK-OV-3 ovarian
CAKI-1 renal = test system: CAKI-1 renal
SF-295 CNS = test system: SF-295 CNS
MCF7 breast = test system: MCF7 breast
SF-539 CNS = test system: SF-539 CNS
OVCAR-5 ovarian = test system: OVCAR-5 ovarian
T-47D breast = test system: T-47D breast
TK-10 renal = test system: TK-10 renal
HCT-15 colon = test system: HCT-15 colon
LOX IMVI melanoma = test system: LOX IMVI melanoma
KM12 colon = test system: KM12 colon
SF-268 CNS = test system: SF-268 CNS
UO-31 renal = test system: UO-31 renal
RXF 393 renal = test system: RXF 393 renal
MDA-MB-231 breast = test system: MDA-MB-231 breast
HT29 colon = test system: HT29 colon
SNB-19 CNS = test system: SNB-19 CNS
A549 NSCLC = test system: A549 NSCLC
PC-3 prostate = test system: PC-3 prostate
CCRF-CEM leukemia = test system: CCRF-CEM leukemia
MDA-MB-435 = test system: MDA-MB-435
NCI/ADR-RES ovarian = test system: NCI/ADR-RES ovarian
NCI-H522 lung = test system: NCI-H522 lung
MDA-N = test system: MDA-N
OVCAR-4 ovarian = test system: OVCAR-4 ovarian
A498 renal = test system: A498 renal
SK-MEL-28 melanoma = test system: SK-MEL-28 melanoma
ACHN renal = test system: ACHN renal
SK-MEL-5 melanoma = test system: SK-MEL-5 melanoma
OVCAR-3 ovarian = test system: OVCAR-3 ovarian
NCI-H23 lung = test system: NCI-H23 lung

## CC(=O)N1CCc2c([nH]c3ccc(Br)cc23)C1c1ccccc1 (stereo not given)
SN12C renal
  TGI: > 10 µM
HOP-62 NSCLC
  TGI: > 10 µM
IGROV1 ovarian
  TGI: > 10 µM
HCT-116 colon
  TGI: > 10 µM
HOP-92 NSCLC
  TGI: > 10 µM
DU-145 prostate
  TGI: > 10 µM
OVCAR-8 ovarian
  TGI: > 10 µM
SW-620 colon
  TGI: > 10 µM
RPMI-8226 leukemia
  TGI: > 10 µM
EKVX NSCLC
  TGI: > 10 µM
K-562 leukemia
  TGI: > 10 µM
M14 melanoma
  TGI: > 10 µM
MALME-3M melanoma
  TGI: > 10 µM
SK-MEL-2 melanoma
  TGI: > 10 µM
UACC-62 melanoma
  TGI: > 10 µM
COLO 205 colon
  TGI: > 10 µM
NCI-H226 lung
  TGI: > 10 µM
UACC-257 melanoma
  TGI: > 10 µM
NCI-H460 lung
  TGI: > 10 µM
HL-60(TB) leukemia
  TGI: > 10 µM
MOLT-4 leukemia
  TGI: > 10 µM
BT-549 breast
  TGI: > 10 µM
SNB-75 CNS
  TGI: > 10 µM
786-0 renal
  TGI: > 10 µM
HCC-2998 colon
  TGI: > 10 µM
U251 CNS
  TGI: > 10 µM
HS 578T breast
  TGI: > 10 µM
SR leukemia
  TGI: > 10 µM
SK-OV-3 ovarian
  TGI: > 10 µM
CAKI-1 renal
  TGI: > 10 µM
SF-295 CNS
  TGI: > 10 µM
MCF7 breast
  TGI: > 10 µM
SF-539 CNS
  TGI: > 10 µM
OVCAR-5 ovarian
  TGI: > 10 µM
T-47D breast
  TGI: > 10 µM
TK-10 renal
  TGI: > 10 µM
HCT-15 colon
  TGI: > 10 µM
LOX IMVI melanoma
  TGI: > 10 µM
KM12 colon
  TGI: > 10 µM
SF-268 CNS
  TGI: > 10 µM
UO-31 renal
  TGI: > 10 µM
RXF 393 renal
  TGI: > 10 µM
MDA-MB-231 breast
  TGI: > 10 µM
HT29 colon
  TGI: > 10 µM
SNB-19 CNS
  TGI: > 10 µM
A549 NSCLC
  TGI: > 10 µM
PC-3 prostate
  TGI: > 10 µM
CCRF-CEM leukemia
  TGI: > 10 µM
MDA-MB-435
  TGI: > 10 µM
NCI/ADR-RES ovarian
  TGI: > 10 µM
NCI-H522 lung
  TGI: > 10 µM
MDA-N
  TGI: > 10 µM
OVCAR-4 ovarian
  TGI: > 10 µM
A498 renal
  TGI: > 10 µM
SK-MEL-28 melanoma
  TGI: > 10 µM
ACHN renal
  TGI: > 10 µM
SK-MEL-5 melanoma
  TGI: > 10 µM
OVCAR-3 ovarian
  TGI: > 10 µM

## Cn1c(=O)c2c(nc3n(Cc4ccccc4)c(=O)c(NCCBr)cn23)n(C)c1=O
SN12C renal
  TGI: > 100 µM
HOP-62 NSCLC
  TGI: 43.2 µM
IGROV1 ovarian
  TGI: > 100 µM
HCT-116 colon
  TGI: 82 µM
HOP-92 NSCLC
  TGI: 36.2 µM
DU-145 prostate
  TGI: > 100 µM
NCI-H23 lung
  TGI: > 100 µM
OVCAR-8 ovarian
  TGI: 33.8 µM
SW-620 colon
  TGI: > 100 µM
RPMI-8226 leukemia
  TGI: > 100 µM
EKVX NSCLC
  TGI: 48.1 µM
K-562 leukemia
  TGI: > 100 µM
M14 melanoma
  TGI: > 100 µM
SK-MEL-2 melanoma
  TGI: 74.2 µM
UACC-62 melanoma
  TGI: > 100 µM
COLO 205 colon
  TGI: > 100 µM
NCI-H226 lung
  TGI: 63.1 µM
UACC-257 melanoma
  TGI: > 100 µM
NCI-H460 lung
  TGI: > 100 µM
HL-60(TB) leukemia
  TGI: > 100 µM
MOLT-4 leukemia
  TGI: > 100 µM
BT-549 breast
  TGI: > 100 µM
SNB-75 CNS
  TGI: 49.8 µM
786-0 renal
  TGI: 37 µM
HCC-2998 colon
  TGI: 52 µM
U251 CNS
  TGI: > 100 µM
HS 578T breast
  TGI: 76.6 µM
SR leukemia
  TGI: 52.9 µM
SK-OV-3 ovarian
  TGI: 51.9 µM
CAKI-1 renal
  TGI: 37.6 µM
SF-295 CNS
  TGI: 43.1 µM
MCF7 breast
  TGI: > 100 µM
OVCAR-5 ovarian
  TGI: > 100 µM
T-47D breast
  TGI: 52.9 µM
TK-10 renal
  TGI: 44.5 µM
HCT-15 colon
  TGI: > 100 µM
LOX IMVI melanoma
  TGI: > 100 µM
KM12 colon
  TGI: > 100 µM
SF-268 CNS
  TGI: > 100 µM
UO-31 renal
  TGI: 36 µM
RXF 393 renal
  TGI: 35 µM
MDA-MB-231 breast
  TGI: 72.2 µM
HT29 colon
  TGI: > 100 µM
SNB-19 CNS
  TGI: > 100 µM
A549 NSCLC
  TGI: > 100 µM
PC-3 prostate
  TGI: > 100 µM
CCRF-CEM leukemia
  TGI: > 100 µM
MDA-MB-435
  TGI: > 100 µM
NCI/ADR-RES ovarian
  TGI: 60.2 µM
NCI-H522 lung
  TGI: 62.8 µM
MDA-N
  TGI: > 100 µM
OVCAR-4 ovarian
  TGI: 49.2 µM
A498 renal
  TGI: 91.1 µM
SK-MEL-28 melanoma
  TGI: > 100 µM
ACHN renal
  TGI: 32.3 µM
SK-MEL-5 melanoma
  TGI: > 100 µM
OVCAR-3 ovarian
  TGI: 66.7 µM

— PubChem BioAssay (NCI)
